Structures can show the parent of a compound that is named as a salt.
target: adenosine A2A receptor (Homo sapiens, UniProt P29274); assay: Adenosine A2A receptor agonist assay, method of L. J. Murphree et al, Molecular Pharmacology 61, 455-462 (2002); format: binding
Description: Compounds of formula (I) and formula (II) and their pharmaceutically acceptable salts are useful as pharmaceuticals. In particular, they activate the adenosine A2A receptor, i.e. they act as A2A receptor agonists.

Sequence of adenosine A2A receptor (P29274 whole entry): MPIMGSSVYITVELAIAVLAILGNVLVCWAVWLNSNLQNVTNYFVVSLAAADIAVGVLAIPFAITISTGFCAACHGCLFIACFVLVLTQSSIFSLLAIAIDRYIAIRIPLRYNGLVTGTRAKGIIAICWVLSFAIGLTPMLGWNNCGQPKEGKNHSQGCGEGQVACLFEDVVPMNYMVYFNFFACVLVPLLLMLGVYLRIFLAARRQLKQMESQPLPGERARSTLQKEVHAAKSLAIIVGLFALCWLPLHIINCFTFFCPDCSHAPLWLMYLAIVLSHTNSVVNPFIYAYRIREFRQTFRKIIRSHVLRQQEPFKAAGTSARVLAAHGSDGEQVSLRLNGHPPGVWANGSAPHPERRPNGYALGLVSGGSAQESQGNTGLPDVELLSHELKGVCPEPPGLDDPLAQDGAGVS

Row | Compound | Ki
1 | O=C(CO)N[C@H]1C[C@@H](n2cnc3c(NCC(c4ccccc4)c4ccccc4)nc(C(=O)NCCNC(=O)NC4CCN(c5ccccn5)CC4)nc32)[C@H](O)[C@@H]1O [Example 14, 9-[(1R,2S,3R,4S)-2,3-Dihydroxy-4-(2-hydroxy-acetylamino)-cyclopentyl]-6-(2,2-diphenyl-ethylamino)-9H-purine-2-carboxylic acid {2-[3-(3,4,5,6-tetrahydro-2H-[1,2′]bipyridinyl-4-yl)-ureido]-ethyl}-amide trifluoroacetate] | 2.5 nM
2 | CCC(=O)N[C@H]1C[C@@H](n2cnc3c(NCC(c4ccccc4)c4ccccc4)nc(N4CC[C@@H](NC(=O)N[C@@H]5CCN(C(=O)c6ccc(C(=O)OC)cc6)C5)C4)nc32)[C@H](O)[C@@H]1O [Example 36, 4-[(R)-3-(3-{(R)-1-[9-((1R,2S,3R,4S)-2,3-Dihydroxy-4-propionylamino-cyclopentyl)-6-(2,2-diphenyl-ethylamino)-9H-purin-2-yl]-pyrrolidin-3-yl}-ureido)-pyrrolidine-1-carbonyl]-benzoic acid methyl ester] | 3 nM
3 | CCC(=O)N[C@H]1C[C@@H](n2cnc3c(NCC(c4ccccc4)c4ccccc4)nc(N4CC[C@@H](NC(=O)NCc5ccncc5)C4)nc32)[C@H](O)[C@@H]1O [Example 20, N-((1S,2R,3S,4R)-4-{6-(2,2-diphenyl-ethylamino)-2-[(R)-3-(3-pyridin-4-ylmethyl-ureido)-pyrrolidin-1-yl]-purin-9-yl}-2,3-dihydroxy-cyclopentyl)-propionamide trifluoroacetate] | 1.6 nM

The remaining lines, values ahead:

Row | Ki | Compound
4 | 8.3 nM | N[C@@H]1CCN(c2nc(NCC(c3ccccc3)c3ccccc3)c3ncn([C@@H]4C[C@H](NC(=O)CO)[C@@H](O)[C@H]4O)c3n2)C1 [Example 1, N-{(1S,2R,3S,4R)-4-[2-((R)-3-Amino-pyrrolidin-1-yl)-6-(2,2-diphenyl-ethylamino)-purin-9-yl]-2,3-dihydroxy-cyclopentyl}-2-hydroxy-acetamide trifluoroacetate]
5 | 8 nM | CCC(=O)N[C@H]1C[C@@H](n2cnc3c(NCC(c4ccccc4)c4ccccc4)nc(N4CC[C@@H](NC(=O)Nc5ccc(OCc6ccccc6)cc5)C4)nc32)[C@H](O)[C@@H]1O [Example 178, N-{(1S,2R,3S,4R)-4-[2-{(R)-3-[3-(4-Benzyloxy-phenyl)-ureido]-pyrrolidin-1-yl}-6-(2,2-diphenyl-ethylamino)-purin-9-yl]-2,3-dihydroxy-cyclopentyl}-propionamide trifluoroacetate]

Reference: US8258141B2, “Organic compounds” (Novartis AG, priority 2006, dated 2012)
